Experimental data: US8008291B2 (Mimetica Pty Ltd, priority 2008, dated 2011)
pIC50: −log10 of the molar value.

Biological target: T1, human MC5R (hMC5R) (Homo sapiens, UniProt P33032)
T1 construct: purchased Perkin Elmer RBXMC5M400UA
Experiment: Human MC5R radioligand binding assay (membranes, [125I] NDP-MSH displacement)
Conditions: hMC5R binding; tested as trifluoroacetate or hydrochloride salts, or free bases; read-out: MC5R radioligand IC50
How it was run: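 Frozen human MC5R membranes incubated with test compound and in-house iodogen-labeled, HPLC-purified [125I]NDP-MSH for 1 hr at 37° C. Binding measured as displacement of the radioligand.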

T1 sequence (P33032 whole entry): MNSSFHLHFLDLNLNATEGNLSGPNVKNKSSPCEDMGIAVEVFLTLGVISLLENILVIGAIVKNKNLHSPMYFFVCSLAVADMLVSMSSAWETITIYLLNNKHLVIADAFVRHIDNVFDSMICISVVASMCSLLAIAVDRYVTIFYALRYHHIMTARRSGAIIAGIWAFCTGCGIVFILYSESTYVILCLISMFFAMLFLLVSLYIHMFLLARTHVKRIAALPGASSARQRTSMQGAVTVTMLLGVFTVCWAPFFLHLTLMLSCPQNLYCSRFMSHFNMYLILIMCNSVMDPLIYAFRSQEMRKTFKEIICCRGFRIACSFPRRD

Row | pIC50 | Compound
1 | > 5.00 | NCCC[C@@H]1N[C@H](CNC(=O)c2ccc3ccccc3c2)CCN(Cc2cccc(Cl)c2Cl)C1=O [Compound 318, N-(((3S,5S)-3-(3-aminopropyl)-1-(2,3-dichlorobenzyl)-2-oxo-1,4-diazepan-5-yl)methyl)-2-naphthamide]
2 | > 6.00 | CC[C@H](CN1CC[C@@H](CNC(=O)c2ccc3cc(Cl)ccc3c2)N[C@@H](CCN(C(C)=O)C(C)C)C1=O)c1ccccc1 [Compound 498, 6-chloro-N-(((3S,5S)-3-(2-(N-isopropylacetamido)ethyl)-2-oxo-1-((S)-2-phenylbutyl)-1,4-diazepan-5-yl)methyl)-2-naphthamide]
3 | > 5.00 | NCC[C@@H]1N[C@H](CNC(=O)c2ccc(C(F)(F)F)cc2)CCN(CC(c2ccccc2)c2ccccc2)C1=O [Compound 435, N-(((3S,5S)-3-(2-aminoethyl)-1-(2,2-diphenylethyl)-2-oxo-1,4-diazepan-5-yl)methyl)-4-(trifluoromethyl)benzamide]
4 | > 7.00 | O=C(/C=C/c1ccc(F)cc1F)NC[C@@H]1CCN(CC(c2ccccc2)c2ccccc2)C(=O)[C@H](CCN2CCCCC2)N1 [Compound 400, (E)-3-(2,4-difluorophenyl)-N-(((3S,5S)-1-(2,2-diphenylethyl)-2-oxo-3-(2-(piperidin-1-yl)ethyl)-1,4-diazepan-5-yl)methyl)acrylamide]
5 | > 7.00 | O=C(NC[C@@H]1CCN(CC(c2ccccc2)c2ccccc2)C(=O)[C@H](CCN2CCOCC2)N1)c1ccc2cc(Cl)ccc2c1 [Compound 514, 6-chloro-N-(((3S,5S)-1-(2,2-diphenylethyl)-3-(2-morpholinoethyl)-2-oxo-1,4-diazepan-5-yl)methyl)-2-naphthamide]
6 | > 6.00 | NCCC[C@@H]1N[C@H](CNC(=O)c2ccc3ccccc3c2)CCN(Cc2ccc(Cl)cc2Cl)C1=O [Compound 319, N-(((3S,5S)-3-(3-aminopropyl)-1-(2,4-dichlorobenzyl)-2-oxo-1,4-diazepan-5-yl)methyl)-2-naphthamide]
7 | > 7.00 | CC[C@@H](CN1CC[C@@H](CNC(=O)c2ccc(Cl)c(Cl)c2)N[C@@H](CCN2CCCCC2)C1=O)c1ccccc1 [Compound 363, 3,4-dichloro-N-(((3S,5S)-2-oxo-1-((R)-2-phenylbutyl)-3-(2-(piperidin-1-yl)ethyl)-1,4-diazepan-5-yl)methyl)benzamide]
8 | > 6.00 | CC1CC(C)CC(CN2CC[C@@H](CNC(=O)/C=C/c3ccc(Cl)cc3)N[C@@H](CCN)C2=O)C1 (stereo partly drawn) [Compound 377, (E)-N-(((3S,5S)-3-(2-aminoethyl)-1-((3,5-dimethylcyclohexyl)methyl)-2-oxo-1,4-diazepan-5-yl)methyl)-3-(4-chlorophenyl)acrylamide]
9 | > 6.00 | CC[C@@H](CN1CC[C@@H](CNC(=O)c2ccc3cc(Cl)ccc3c2)N[C@@H](CCN)C1=O)C(C)C [Compound 469, N-(((3S,5S)-3-(2-aminoethyl)-1-((R)-2-ethyl-3-methylbutyl)-2-oxo-1,4-diazepan-5-yl)methyl)-6-chloro-2-naphthamide]
10 | > 6.00 | NCCCC[C@@H]1N[C@H](CNC(=O)Cc2ccc(-c3ccccc3)cc2)CCN(Cc2ccc3ccccc3c2)C1=O [Compound 121, N-(((3S,5S)-3-(4-aminobutyl)-1-(naphthalen-2-ylmethyl)-2-oxo-1,4-diazepan-5-yl)methyl)-2-(biphenyl-4-yl)acetamide]
11 | > 7.00 | CCC[C@H](CN1CC[C@@H](CNC(=O)c2ccc3ccccc3c2)N[C@@H](CCN2CCCCC2)C1=O)c1ccccc1 [Compound 433, N-(((3S,5S)-2-oxo-1-((S)-2-phenylpentyl)-3-(2-(piperidin-1-yl)ethyl)-1,4-diazepan-5-yl)methyl)-2-naphthamide]
12 | > 6.00 | CC[C@H](CN1CC[C@@H](CNC(=O)c2ccc3cc(Cl)ccc3c2)N[C@@H](CC(C)(C)N)C1=O)c1ccccc1 [Compound 463, N-(((3S,5S)-3-(2-amino-2-methylpropyl)-2-oxo-1-((S)-2-phenylbutyl)-1,4-diazepan-5-yl)methyl)-6-chloro-2-naphthamide]
13 | > 5.00 | N=C(N)NCCC[C@@H]1N[C@H](CNC(=O)c2ccc3ccccc3c2)CCN(C[C@H](NC(=O)c2ccccc2)c2ccccc2)C1=O [Compound 288, N-(((3S,5S)-1-((R)-2-benzamido-2-phenylethyl)-3-(3-guanidinopropyl)-2-oxo-1,4-diazepan-5-yl)methyl)-2-naphthamide]
14 | > 6.00 | CC1CC(C)CC(CN2CC[C@@H](CNC(=O)c3ccc(Cl)c(Cl)c3)N[C@@H](CCN)C2=O)C1 (stereo partly drawn) [Compound 375, N-(((3S,5S)-3-(2-aminoethyl)-1-((3,5-dimethylcyclohexyl)methyl)-2-oxo-1,4-diazepan-5-yl)methyl)-3,4-dichlorobenzamide]
15 | > 5.00 | NCCCC[C@@H]1N[C@H](CNC(=O)Cc2c[nH]c3ccccc23)CCN(Cc2cccc3ccccc23)C1=O [Compound 120, N-(((3S,5S)-3-(4-aminobutyl)-1-(naphthalen-1-ylmethyl)-2-oxo-1,4-diazepan-5-yl)methyl)-2-(1H-indol-3-yl)acetamide]
16 | > 7.00 | O=C(NC[C@@H]1CCN(Cc2cc(Cl)cc(Cl)c2)C(=O)[C@H](CCN2CCCCC2)N1)c1cc(-c2ccc(Cl)cc2)on1 [Compound 527, 5-(4-chlorophenyl)-N-(((3S,5S)-1-(3,5-dichlorobenzyl)-2-oxo-3-(2-(piperidin-1-yl)ethyl)-1,4-diazepan-5-yl)methyl)isoxazole-3-carboxamide]
17 | > 7.00 | CC[C@@H](CN1CC[C@@H](CNC(=O)c2ccc3cc(Cl)ccc3c2)N[C@@H](CCN2CCCCC2)C1=O)c1ccsc1 [Compound 510, 6-chloro-N-(((3S,5S)-2-oxo-3-(2-(piperidin-1-yl)ethyl)-1-((R)-2-(thiophen-3-yl)butyl)-1,4-diazepan-5-yl)methyl)-2-naphthamide]
18 | > 7.00 | CC1CC(C)CC(CN2CC[C@@H](CNC(=O)c3ccc4ccccc4c3)N[C@@H](CCCNC(=N)N)C2=O)C1 (stereo partly drawn) [Compound 298, N-(((3S,5S)-1-((3,5-dimethylcyclohexyl)methyl)-3-(3-guanidinopropyl)-2-oxo-1,4-diazepan-5-yl)methyl)-2-naphthamide]
19 | > 7.00 | CC[C@H](CN1CC[C@@H](CNC(=O)c2ccc(Cl)c(Cl)c2)N[C@@H](CCN2CCC(F)(F)CC2)C1=O)c1ccccc1 [Compound 483, 3,4-dichloro-N-(((3S,5S)-3-(2-(4,4-difluoropiperidin-1-yl)ethyl)-2-oxo-1-((S)-2-phenylbutyl)-1,4-diazepan-5-yl)methyl)benzamide]
20 | > 7.00 | CC[C@H](CN1CC[C@@H](CNC(=O)c2ccc3cc(Cl)ccc3c2)N[C@@H](CCN)C1=O)c1ccccc1 [Compound 441, N-(((3S,5S)-3-(2-aminoethyl)-2-oxo-1-((S)-2-phenylbutyl)-1,4-diazepan-5-yl)methyl)-6-chloro-2-naphthamide]
21 | > 6.00 | N=C(N)NCCC[C@@H]1N[C@H](CNC(=O)c2ccc3ccccc3c2)CCN(CC23CC4CC(CC(C4)C2)C3)C1=O [Compound 202, N-(((3S,5S)-1-(1-adamantylmethyl)-3-(3-guanidinopropyl)-2-oxo-1,4-diazepan-5-yl)methyl)-2-naphthamide]
22 | > 6.00 | N=C(N)NCCC[C@@H]1N[C@H](CNC(=O)c2ccc3ccccc3c2)CCN(CCC2CC3CCC2C3)C1=O (stereo partly drawn) [Compound 243, N-(((3S,5S)-1-(2-(bicyclo[2.2.1]heptan-2-yl)ethyl)-3-(3-guanidinopropyl)-2-oxo-1,4-diazepan-5-yl)methyl)-2-naphthamide]
